In BindingDB's records for doi:10.1016/j.bioorg.2016.11.008 (Beni-Suef University, 2017):
“And” between values parts separate entries of the source, which are not always exact repeats. Identical values can stand only once.

Experiments:
[1] = biological target: T1, Prostaglandin G/H synthase 2 (Ovis aries, UniProt P79208); test: COX-1/COX-2 Inhibition Colorimetric Assay
T1 sequence (P79208 whole entry): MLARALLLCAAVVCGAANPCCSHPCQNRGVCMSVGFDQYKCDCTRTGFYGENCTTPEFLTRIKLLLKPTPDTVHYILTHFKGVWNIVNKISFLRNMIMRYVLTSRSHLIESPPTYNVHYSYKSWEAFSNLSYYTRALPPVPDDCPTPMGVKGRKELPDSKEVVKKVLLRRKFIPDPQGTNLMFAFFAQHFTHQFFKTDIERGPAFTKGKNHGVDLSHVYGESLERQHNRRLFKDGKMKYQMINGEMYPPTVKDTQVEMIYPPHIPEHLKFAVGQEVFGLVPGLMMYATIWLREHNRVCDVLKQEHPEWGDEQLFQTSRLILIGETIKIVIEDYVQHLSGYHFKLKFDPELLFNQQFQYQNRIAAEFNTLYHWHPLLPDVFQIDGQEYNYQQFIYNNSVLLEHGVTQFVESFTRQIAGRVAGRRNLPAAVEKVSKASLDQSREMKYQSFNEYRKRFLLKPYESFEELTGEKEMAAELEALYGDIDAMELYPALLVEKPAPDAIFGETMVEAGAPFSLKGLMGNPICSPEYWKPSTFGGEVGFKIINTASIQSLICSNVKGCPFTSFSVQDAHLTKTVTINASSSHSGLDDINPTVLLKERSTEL
Procedure: (§1) The in vitro inhibition of ovine COX-1 and COX-2 was measured using an enzyme immuno assay (EIA) kit (Cayman Chemical, Ann Arbor, MI, USA) according to the manufacturer's instructions and as reported before [Roschek et al., J. Med. Food., 12:615-623].

[2] = biological target: T2, Prostaglandin G/H synthase 1 (Ovis aries, UniProt P05979); test: COX-1/COX-2 Inhibition Colorimetric Assay
T2 sequence (P05979 whole entry): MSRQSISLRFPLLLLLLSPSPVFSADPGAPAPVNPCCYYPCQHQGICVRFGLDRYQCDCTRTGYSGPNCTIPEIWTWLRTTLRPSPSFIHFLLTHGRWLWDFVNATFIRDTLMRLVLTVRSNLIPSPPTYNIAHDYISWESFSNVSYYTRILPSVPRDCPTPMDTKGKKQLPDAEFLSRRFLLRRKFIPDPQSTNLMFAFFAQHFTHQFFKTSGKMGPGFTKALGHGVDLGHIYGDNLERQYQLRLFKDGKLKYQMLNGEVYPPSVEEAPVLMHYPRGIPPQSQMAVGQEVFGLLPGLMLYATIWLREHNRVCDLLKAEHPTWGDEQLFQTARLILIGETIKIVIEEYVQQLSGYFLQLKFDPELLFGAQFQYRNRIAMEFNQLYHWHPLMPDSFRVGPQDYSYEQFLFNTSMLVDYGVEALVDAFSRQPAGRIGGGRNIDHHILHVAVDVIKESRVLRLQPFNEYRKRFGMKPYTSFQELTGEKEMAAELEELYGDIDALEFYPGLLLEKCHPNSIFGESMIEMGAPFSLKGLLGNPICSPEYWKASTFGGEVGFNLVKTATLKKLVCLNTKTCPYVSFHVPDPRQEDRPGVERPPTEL
Procedure: as §1

IC50 [1]	IC50 [2]	SMILES
740 nM	6.52 µM	COc1ccc(C2CC(c3ccc(Cl)cc3)=NN2c2ccc(S(N)(=O)=O)cc2)cc1 (configuration not stated)
1520 nM	9.89 µM	CS(=O)(=O)c1ccc(N2N=C(c3ccc(Cl)cc3)CC2c2ccc(Cl)cc2)cc1 (configuration not stated) [3,5-Bis-(4-chloro-phenyl)-1-(4-methanesulfonyl-phenyl)-4,5-dihydro-1H-pyrazole (10j)]
980 nM	8.65 µM	COc1cc(C2CC(c3ccc(Br)cc3)=NN2c2ccc(S(C)(=O)=O)cc2)cc(OC)c1OC (configuration not stated) [3-(4-Bromo-phenyl)-1-(4-methanesulfonyl-phenyl)-5-(3,4,5-trimethoxy-phenyl)-4,5-dihydro-1H-pyrazole (10g)]
630 nM	4.85 µM	COc1ccc(C2CC(c3ccc(Br)cc3)=NN2c2ccc(S(C)(=O)=O)cc2)cc1 (configuration not stated) [3-(4-Bromo-phenyl)-1-(4-methanesulfonyl-phenyl)-5-(4-methoxy-phenyl)-4,5-dihydro-1H-pyrazole (10k)]
420 nM and 2980 nM	3.87 µM and 8.34 µM	COc1cc(C2CC(c3ccc(Cl)cc3)=NN2c2ccc(S(C)(=O)=O)cc2)cc(OC)c1OC (configuration not stated) [3-(4-Chloro-phenyl)-1-(4-methanesulfonyl-phenyl)-5-(3,4,5-trimethoxy-phenyl)-4,5-dihydro-1H-pyrazole (10h)]
3410 nM	10.2 µM	COc1ccc(C2CC(c3ccc(Cl)cc3)=NN2c2ccc(S(C)(=O)=O)cc2)cc1 (configuration not stated) [3-(4-Chloro-phenyl)-1-(4-methanesulfonyl-phenyl)-5-(4-methoxy-phenyl)-4,5-dihydro-1H-pyrazole (10l)]
780 nM	7.52 µM	COc1cc(C2CC(c3ccc(Br)cc3)=NN2c2ccc(S(N)(=O)=O)cc2)cc(OC)c1OC (configuration not stated) [4-[3-(4-Bromo-phenyl)-5-(3,4,5-trimethoxy-phenyl)-4,5-dihydropyrazol-1-yl]-benzene-sulfonamide (10a)]
1430 nM	6.87 µM	NS(=O)(=O)c1ccc(N2N=C(c3ccc(Br)cc3)CC2c2ccc(Cl)cc2)cc1 (configuration not stated) [4-[3-(4-Bromo-phenyl)-5-(4-chloro-phenyl)-4,5-dihydro-pyrazol-1-yl]-benzene-sulfonamide (10c)]
220 nM	3.41 µM	COc1cc(C2CC(c3ccc(Cl)cc3)=NN2c2ccc(S(N)(=O)=O)cc2)cc(OC)c1OC (configuration not stated) [4-[3-(4-Chloro-phenyl)-5-(3,4,5-trimethoxy-phenyl)-4,5-dihydropyrazol-1-yl]-benzene-sulfonamide (10b)]
900 nM	5.11 µM	NS(=O)(=O)c1ccc(N2N=C(c3ccc(Cl)cc3)CC2c2ccc(Cl)cc2)cc1 (configuration not stated) [4-[3-(4-Chloro-phenyl)-5-(4-chloro-phenyl)-4,5-dihydro-pyrazol-1-yl]-benzene-sulfonamide (10d)]
630 nM	5.17 µM	COc1ccc(C2CC(c3ccc(Br)cc3)=NN2c2ccc(S(N)(=O)=O)cc2)cc1 (configuration not stated) [UNM-0000306138]
